Data on seven substances can be found in US6037447A, “Glycopeptide compounds” (priority 1998, dated 2000).

A value given as a limit tells only on which side of the number the result lay.

Assay [1] relates to Enterococcus faecalis 2041. Description: Standard broth micro-dilution MIC, Enterococcus faecalis 2041. In kind it is cell-based. On the procedure: (§1) The minimal inhibitory concentrations (MICs) were determined using a standard broth micro-dilution assay.
A general note: Dilution methods test growth across graded concentrations, often in twofold steps.

For assay [2], the system named is Enterococcus faecalis 276. Briefly: Standard broth micro-dilution MIC, Enterococcus faecalis 276. The assay is classed as cell-based. As for the experimental part: as §1
Assay [3] concerns Streptococcus pneumoniae P1. Briefly: Standard broth micro-dilution MIC, Streptococcus pneumoniae P1. The assay is classed as cell-based. As for the experimental part:
as §1

In another assay the test system is Escherichia coli EC14. Briefly: Standard broth micro-dilution MIC, Escherichia coli EC14. The assay is classed as cell-based. As for the experimental part:
as §1

Assay [4] has as its system Staphylococcus aureus X400. Description: Standard broth micro-dilution MIC, Staphylococcus aureus X400. In kind it is cell-based. As for the experimental part:
as §1

Assay [5] deals with Staphylococcus aureus 489. Description: Standard broth micro-dilution MIC, Staphylococcus aureus 489. In kind it is cell-based. On the procedure: as §1
The subject of assay [6] is Staphylococcus epidermidis 270. Description: Standard broth micro-dilution MIC, Staphylococcus epidermidis 270. The assay is classed as cell-based. On the procedure: as §1
The subject of assay [7] is vancomycin-sensitive enterococci. Briefly: In Vitro Activity Against Enterococci, vancomycin-sensitive strains. In kind it is cell-based, Enterococcus faecium and Enterococcus faecalis. As to conditions: representative vancomycin-sensitive enterococci (Enterococcus faecium and Enterococcus faecalis). As for the experimental part: as §1
Assay [8] relates to Staphylococcus aureus SA1199A. Description: Standard broth micro-dilution MIC, Staphylococcus aureus SA1199A. The assay is classed as cell-based. As for the experimental part: as §1
In assay [9] the test system is Staphylococcus aureus S13E. The assay is classed as cell-based. On the procedure:
as §1

Assay [10] concerns vancomycin-resistant enterococci. Description: In Vitro Activity Against Enterococci, vancomycin-resistant strains. In kind it is cell-based. The note with it: representative vancomycin-resistant enterococci (Enterococcus faecium and Enterococcus faecalis). On the procedure:
as §1

Assay [11] concerns Staphylococcus aureus 446. Briefly: Standard broth micro-dilution MIC, Staphylococcus aureus 446. The assay is classed as cell-based. On the procedure: as §1
The subject of assay [12] is Enterococcus faecium 180-1. Briefly: Standard broth micro-dilution MIC, Enterococcus faecium 180-1. In kind it is cell-based. On the procedure: as §1
The subject of another assay is Enterococcus faecium 180. Description: Standard broth micro-dilution MIC, Enterococcus faecium 180. The assay is classed as cell-based. On the procedure:
as §1

The subject of assay [13] is Streptococcus pyogenes C203. Description: Standard broth micro-dilution MIC, Streptococcus pyogenes C203. In kind it is cell-based. As for the experimental part:
as §1

Assay [14] has as its system Staphylococcus aureus X778. Description: Standard broth micro-dilution MIC, Staphylococcus aureus X778. In kind it is cell-based. On the procedure: as §1
The subject of assay [15] is Staphylococcus aureus 491. Briefly: Standard broth micro-dilution MIC, Staphylococcus aureus 491. In kind it is cell-based. As for the experimental part: as §1
In assay [16] the test system is Staphylococcus aureus SA1199. Briefly: Standard broth micro-dilution MIC, Staphylococcus aureus SA1199. The assay is classed as cell-based. As for the experimental part: as §1
For assay [17], the system named is Staphylococcus aureus 447. Description: Standard broth micro-dilution MIC, Staphylococcus aureus 447. The assay is classed as cell-based. As for the experimental part:
as §1

Assay [18] has as its system Staphylococcus haemolyticus 415. Description: Standard broth micro-dilution MIC, Staphylococcus haemolyticus 415. The assay is classed as cell-based. On the procedure:
as §1

The test system of assay [19] is Staphylococcus haemolyticus 105. Description: Standard broth micro-dilution MIC, Staphylococcus haemolyticus 105. In kind it is cell-based. On the procedure:
as §1

The test system of assay [20] is Staphylococcus aureus SA119913. Briefly: Standard broth micro-dilution MIC, Staphylococcus aureus SA119913. In kind it is cell-based. As for the experimental part: as §1
Assay [21] relates to Enterococcus gallinarum 245. Description: Standard broth micro-dilution MIC, Enterococcus gallinarum 245. In kind it is cell-based. On the procedure:
as §1

For assay [22], the system named is Haemophilus influenzae RD. Description: Standard broth micro-dilution MIC, Haemophilus influenzae RD. The assay is classed as cell-based. As for the experimental part: as §1

With “N^4 -(4-(12-(p-formylphenoxy)-n-dodecyloxy)benzyl)vancomycin [Compound 42]”, the MIC is 2 µg/mL in assay [1]; 4 µg/mL in assay [2]; 1 µg/mL in assay [3]; more than 64 µg/mL against Escherichia coli EC14; 2 µg/mL in assay [4]; 2 µg/mL in assay [5]. The MIC in assay [6] amounted to 4 µg/mL; in assay [8], 1 µg/mL; in assay [9], 4 µg/mL; in assay [11], 2 µg/mL; in assay [12] it was 1 µg/mL; in the assay with Enterococcus faecium 180, 0.5 µg/mL. In addition, the MIC is 0.25 µg/mL in assay [13]; 1 µg/mL in assay [14]; 2 µg/mL in assay [15]; 2 µg/mL in [16]; 4 µg/mL in assay [17]; 8 µg/mL in assay [18]. Also, the results for the MIC in assay [19], in assay [20] and in assay [21] were 2 µg/mL, 4 µg/mL and 1 µg/mL, respectively. Moreover, the “mean geometric MIC, Vancomycin Sensitive Strains” value in assay [7] worked out at 1.1 µg/mL. Besides, in assay [10], the “mean geometric MIC, Vancomycin Resistant Strains” value was determined as 4.5 µg/mL.
“N^4 -(4-(3-(p-formylphenoxy)-n-propyloxy)benzyl)A82846B [Compound 46]”: the MIC in [1] was not above 0.06 µg/mL; in assay [2] it was 1 µg/mL; in assay [3] it was not above 0.06 µg/mL; with Escherichia coli EC14 it was more than 64 µg/mL; in [4], 1 µg/mL; in [5], 0.5 µg/mL. The MIC in [6] was 2 µg/mL; in [8], 0.125 µg/mL; in assay [9], 0.5 µg/mL; in assay [11], 1 µg/mL; in assay [12], not above 0.06 µg/mL; with Enterococcus faecium 180, 0.5 µg/mL. The MIC is not above 0.06 µg/mL in [13]; 0.5 µg/mL in assay [14]; 0.5 µg/mL in assay [15]; 1 µg/mL in assay [16]; 2 µg/mL in assay [17]; 4 µg/mL in assay [18]. Besides, the MIC in assay [19] was found to be 2 µg/mL; in assay [20], 1 µg/mL; in assay [21], 4 µg/mL. The “mean geometric MIC, Vancomycin Sensitive Strains” value in assay [7] is 0.17 µg/mL. For the same substance, the “mean geometric MIC, Vancomycin Resistant Strains” value in assay [10] is 4.8 µg/mL.
As for “N^4 -(4-(8-(p-formylphenoxy)-n-octyloxy)benzyl)A82846B [Compound 47]”, the MIC was 2 µg/mL in assay [1]; 8 µg/mL in assay [2]; not above 0.06 µg/mL in [3]; more than 64 µg/mL in the assay on Escherichia coli EC14; 8 µg/mL in assay [4]; 4 µg/mL in assay [5]. The MIC in assay [6] is 4 µg/mL; in assay [8], 0.5 µg/mL; in assay [9], 16 µg/mL; in assay [11], 8 µg/mL; in assay [22], more than 64 µg/mL; in assay [12], 1 µg/mL. Also, the MIC with Enterococcus faecium 180 is 0.5 µg/mL; in [13], not above 0.06 µg/mL; in assay [14] it was 8 µg/mL; in assay [15], 16 µg/mL; in assay [16], 16 µg/mL; in assay [17], 8 µg/mL. In addition, the MIC in assay [18] was 16 µg/mL; in [19] it was 8 µg/mL; in [20], 8 µg/mL; in assay [21], 16 µg/mL. Besides, the “mean geometric MIC, Vancomycin Sensitive Strains” value in assay [7] worked out at 1.0 µg/mL. For the same substance, the “mean geometric MIC, Vancomycin Resistant Strains” value in [10] amounted to 2.8 µg/mL.
“1,3-propanediyl-bis-[(oxy-4,1-phenylene)-methylene]-bis-[A82846B] [Compound 14]”: the MIC in assay [1] was 0.25 µg/mL; in [2], 0.5 µg/mL; in [3] it was 0.06 µg/mL; with Escherichia coli EC14, more than 64 µg/mL; in assay [4], 2 µg/mL; in assay [5] it was 1 µg/mL. For the same substance, the MIC in assay [6] is 8 µg/mL; in assay [8], 0.125 µg/mL; in assay [9] it was 2 µg/mL; in assay [11] it was 4 µg/mL; in [22], more than 64 µg/mL; in assay [12], not above 0.06 µg/mL. In addition, the MIC came out at 0.25 µg/mL against Enterococcus faecium 180; 0.06 µg/mL in assay [13]; 1 µg/mL in assay [14]; 0.25 µg/mL in assay [15]; 4 µg/mL in assay [16]; 16 µg/mL in assay [17]. The MIC was found to be 16 µg/mL in [18], 4 µg/mL in assay [19], 2 µg/mL in assay [20] and 0.06 µg/mL in assay [21]. Besides, the “mean geometric MIC, Vancomycin Sensitive Strains” value in assay [7] came to 1.0 µg/mL. Also, the “mean geometric MIC, Vancomycin Resistant Strains” value in assay [10] was more than 64 µg/mL.
Turning to “N^4 -(4-(2-(4-(2-(p-formyl-phenoxy)ethoxycarbonyl)benzoyl-oxy)ethoxy)benzyl)vancomycin [Compound 44]”, the MIC in assay [1] is not above 0.06 µg/mL; in assay [2], not above 0.06 µg/mL; in assay [3], 0.06 µg/mL; with Escherichia coli EC14 it was more than 64 µg/mL; in assay [4], not above 0.06 µg/mL; in [5], 0.125 µg/mL. Moreover, the MIC in [6] was 0.25 µg/mL; in assay [8], not above 0.06 µg/mL; in [9] it was not above 0.06 µg/mL; in assay [11] it was 0.125 µg/mL; in assay [22], more than 64 µg/mL; in assay [12], not above 0.06 µg/mL. For the same substance, the MIC against Enterococcus faecium 180 was 4 µg/mL; in [13] it was 0.06 µg/mL; in [14], not above 0.06 µg/mL; in [15], not above 0.06 µg/mL; in [16], not above 0.06 µg/mL; in [17], 0.125 µg/mL. Also, the MIC was 2 µg/mL in [18], 0.25 µg/mL in [19], not above 0.06 µg/mL in [20] and 0.25 µg/mL in [21]. In [7], the “mean geometric MIC, Vancomycin Sensitive Strains” value came out at 0.66 µg/mL. Also, in [10], the “mean geometric MIC, Vancomycin Resistant Strains” value worked out at 76 µg/mL.
Turning to “N^4 -(4-(2-(2-(2-(p-formyl-phenoxy)ethoxy)ethoxy)ethoxy)benzyl)A82846B [Compound 43]”, the MIC is 1 µg/mL in assay [1]; 1 µg/mL in [2]; 0.06 µg/mL in assay [3]; more than 64 µg/mL against Escherichia coli EC14; 2 µg/mL in [4]; 1 µg/mL in assay [5]. Moreover, the MIC in assay [6] was 4 µg/mL; in assay [8] it was 0.5 µg/mL; in assay [9], 2 µg/mL; in assay [11], 2 µg/mL; in assay [22], more than 64 µg/mL; in assay [12], 0.5 µg/mL. For the same substance, the MIC in the assay with Enterococcus faecium 180 stood at 8 µg/mL; in assay [13] it was 0.06 µg/mL; in assay [14], 2 µg/mL; in [15] it was 0.5 µg/mL; in assay [16] it was 2 µg/mL; in [17], 4 µg/mL. The MIC stood at 8 µg/mL in assay [18], 1 µg/mL in assay [19], 4 µg/mL in [20] and 0.5 µg/mL in assay [21]. The “mean geometric MIC, Vancomycin Sensitive Strains” value in [7] is 4.6 µg/mL. In addition, in assay [10], the “mean geometric MIC, Vancomycin Resistant Strains” value was more than 128 µg/mL.
“N^4 -(4-(12-(p-formylphenoxy)-n-dodecyloxy)benzyl)A82846B [Compound 48]”: the MIC is 8 µg/mL in [1]; 32 µg/mL in [2]; 4 µg/mL in assay [3]; more than 64 µg/mL against Escherichia coli EC14; 32 µg/mL in [4]; 32 µg/mL in [5]. The MIC in assay [6] was more than 64 µg/mL; in assay [8], 16 µg/mL; in assay [9], 32 µg/mL; in assay [11] it was more than 64 µg/mL; in assay [22] it was more than 64 µg/mL; in assay [12] it was 8 µg/mL. Further, the MIC was 64 µg/mL against Enterococcus faecium 180; 2 µg/mL in assay [13]; 32 µg/mL in assay [14]; 32 µg/mL in assay [15]; 32 µg/mL in assay [16]; more than 64 µg/mL in assay [17]. Also, the MIC in assay [18] is more than 64 µg/mL; in [19], more than 64 µg/mL; in [20] it was 32 µg/mL; in assay [21], more than 64 µg/mL. Besides, the “mean geometric MIC, Vancomycin Sensitive Strains” value in [7] turned out to be 5.2 µg/mL. Also, in assay [10], the “mean geometric MIC, Vancomycin Resistant Strains” value is 8.0 µg/mL.
